This note sets out measurements from publication PMC12143348, “Rapid and reversible fluorescent probe enables repeated snapshot imaging of AMPA receptors during synaptic plasticity” (Science Advances, 2025).

The subject of one data set is AMPARs. In words: Kinetics and reversibility of PFQX1(AF488) binding in cultured hippocampal neurons. The arrangement: species or system mouse. Particulars: 100 nM probe. As for the experimental part: A cloning ring (16 mm φ) was placed on the dish to accelerate the diffusion of the probe solution. After the dish was set on the stage, the cells were treated with 100 nM PFQX1(AF488) and imaged at specified time points by confocal microscopy.
For evaluating reversibility, stained cells were observed by confocal microscopy as the first image. Then, the cells were washed three times with Hepes-based ACSF and scanned as the wash image. After removal of the buffer, 100 nM PFQX1(AF488) was re-treated, and the cells were scanned as the second image. To quantify the fluorescence intensity of spines, the average signal intensity of ROIs set on spines was calculated by ZEN blue software after subtracting background fluorescence.

The nature of data set [1]: Solubility of PFQX(Dye)s in HBS. The format is physicochemical. Particulars: aqueous buffer; dissolved in HBS. Here is the method: aAffinity was evaluated in HEK293T cells expressing GluA2 flip(Q).
S3A. bPFQX(Dye)sweredissolved in HBS.
cAffinity to native AMPARs were evaluated usingprimary cultured hippocampal

The target of the next data set is T1, GluA2flip(R) + TARP γ7 (Mus musculus, UniProt P23819, DEL765-802/Q607R).
T1 construct: expressed in transfected cells; host or cells: HEK293T
T1 sequence (P23819 with tags, fused parts or gaps isoform P23819-4 Q607R/DEL765-802): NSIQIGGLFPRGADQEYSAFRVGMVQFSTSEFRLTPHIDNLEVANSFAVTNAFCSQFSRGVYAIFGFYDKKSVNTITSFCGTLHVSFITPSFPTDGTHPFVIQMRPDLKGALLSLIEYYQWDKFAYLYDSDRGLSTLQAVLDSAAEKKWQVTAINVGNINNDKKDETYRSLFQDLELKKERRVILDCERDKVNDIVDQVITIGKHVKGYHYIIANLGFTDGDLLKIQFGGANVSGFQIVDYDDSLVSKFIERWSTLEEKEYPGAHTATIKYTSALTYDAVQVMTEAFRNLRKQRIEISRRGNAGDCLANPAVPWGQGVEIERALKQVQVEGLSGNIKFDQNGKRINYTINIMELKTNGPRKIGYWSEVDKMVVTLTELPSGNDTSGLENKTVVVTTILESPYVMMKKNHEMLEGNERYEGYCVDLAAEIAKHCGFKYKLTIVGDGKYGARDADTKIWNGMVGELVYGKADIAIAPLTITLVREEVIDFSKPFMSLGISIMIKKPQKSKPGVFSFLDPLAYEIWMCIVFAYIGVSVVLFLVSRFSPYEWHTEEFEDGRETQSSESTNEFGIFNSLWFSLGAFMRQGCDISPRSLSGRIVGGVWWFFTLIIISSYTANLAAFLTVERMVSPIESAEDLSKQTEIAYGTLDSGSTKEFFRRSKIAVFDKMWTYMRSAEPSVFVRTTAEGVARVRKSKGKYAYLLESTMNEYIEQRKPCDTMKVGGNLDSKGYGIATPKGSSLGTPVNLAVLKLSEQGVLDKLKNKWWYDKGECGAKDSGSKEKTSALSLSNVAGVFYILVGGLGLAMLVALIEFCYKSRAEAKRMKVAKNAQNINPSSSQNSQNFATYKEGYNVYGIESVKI
T1 sequence (P62956 whole entry partner): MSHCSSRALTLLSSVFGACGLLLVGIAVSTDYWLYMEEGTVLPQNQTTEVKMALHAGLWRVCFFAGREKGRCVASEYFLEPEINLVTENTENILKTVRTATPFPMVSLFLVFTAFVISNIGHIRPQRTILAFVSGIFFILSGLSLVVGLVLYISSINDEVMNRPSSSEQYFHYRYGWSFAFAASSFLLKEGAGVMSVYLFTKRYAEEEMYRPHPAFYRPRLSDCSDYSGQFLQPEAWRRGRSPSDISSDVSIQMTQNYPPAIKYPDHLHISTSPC
Nature of the data set: Concentration-dependent binding of PFQX1(AF488) to GluA2flip(R) expressed with TARP γ7 in HEK293T cells. The following applies: n = 3–4, read-out: Kd / Affinity of PFQX1(AF488) to GluA2flip(R) with TARP γ7. Here is the method: HEK293T cells (American Type Culture Collection) were cultured in Dulbecco’s modified Eagle’s medium (DMEM)–GlutaMAX (Invitrogen) supplemented with 10% fetal bovine serum (FBS) (Sigma-Aldrich), penicillin (100 U ml^−1), and streptomycin (100 μg ml^−1) and incubated in a 5% CO2 humidified chamber at 37°C. Cells were transfected with a plasmid using Lipofectamine 3000 (Invitrogen) according to the manufacturer’s instructions. Twenty-four hours after transfection, the cells were seeded on glass-bottom dishes coated with poly-L-lysine solution and incubated for 24 hours except for GluA4, TARP γ7, and GluK2. For GluA4, TARP γ7, and GluK2 expression, the cells were used 24 hours after transfection. […]
HEK293T cells were cotransfected with plasmids for AMPAR [5′UTR-GluA1^flip(R)-3′UTR, GluA2^flip(Q)-3′UTR, GluA3^flip(Q) (Y454A/R461G), and GluA4^flip(Q)], kainate receptor [GluK2(Q)], auxiliary subunits, or the control vector and transfection marker (EFGP-F or mCherry-F). […] Fluorescence images were acquired by excitation at 405, 488, 561, or 640 nm derived from diode lasers.
For evaluating the concentration dependency of fluorophore-ligand conjugates, 0.1 nM probe in HBS was added to the dish. […] Cell surface fluorescence intensity was quantified from the line scans of transfection marker positive cells and calculated with subtraction of background by ZEN blue software (Carl Zeiss). […]

The target of another data set is T2, GluA3 (Y454A/R461G) (Mus musculus, UniProt Q9Z2W9, R461G/Y454A).
T2 construct: expressed in transfected cells; host or cells: HEK293T
T2 sequence (Q9Z2W9 23-888 Y454A/R461G): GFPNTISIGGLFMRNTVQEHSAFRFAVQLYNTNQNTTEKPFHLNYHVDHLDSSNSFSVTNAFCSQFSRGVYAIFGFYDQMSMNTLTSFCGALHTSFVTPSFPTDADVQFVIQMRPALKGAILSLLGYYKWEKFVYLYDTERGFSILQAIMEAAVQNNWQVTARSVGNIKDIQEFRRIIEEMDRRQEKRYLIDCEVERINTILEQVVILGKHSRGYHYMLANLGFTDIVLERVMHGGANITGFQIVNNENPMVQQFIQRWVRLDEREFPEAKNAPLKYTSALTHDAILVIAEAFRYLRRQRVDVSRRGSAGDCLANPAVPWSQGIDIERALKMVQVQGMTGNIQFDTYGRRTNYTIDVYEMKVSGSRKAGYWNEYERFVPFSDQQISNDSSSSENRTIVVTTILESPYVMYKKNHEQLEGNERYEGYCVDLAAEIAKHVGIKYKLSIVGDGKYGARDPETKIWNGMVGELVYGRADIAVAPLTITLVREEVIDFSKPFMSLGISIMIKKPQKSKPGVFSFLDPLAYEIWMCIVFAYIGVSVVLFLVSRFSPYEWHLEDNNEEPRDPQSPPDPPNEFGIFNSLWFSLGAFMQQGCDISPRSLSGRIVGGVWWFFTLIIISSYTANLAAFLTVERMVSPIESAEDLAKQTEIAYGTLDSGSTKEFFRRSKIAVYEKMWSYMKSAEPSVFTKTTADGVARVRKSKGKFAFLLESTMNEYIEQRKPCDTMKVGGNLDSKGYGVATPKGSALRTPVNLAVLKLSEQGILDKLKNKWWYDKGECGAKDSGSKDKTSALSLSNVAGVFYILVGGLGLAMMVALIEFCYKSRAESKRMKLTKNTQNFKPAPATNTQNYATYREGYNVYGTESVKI
In words: Concentration-dependent binding of PFQX1(AF488), confocal live imaging of HEK293T cells expressing GluA3. Particulars: n = 3, read-out: Kd / Affinity of PFQX1(AF488) to GluA3. Here is the method: HEK293T cells were cotransfected with plasmids for AMPAR [5′UTR-GluA1^flip(R)-3′UTR, GluA2^flip(Q)-3′UTR, GluA3^flip(Q) (Y454A/R461G), and GluA4^flip(Q)], kainate receptor [GluK2(Q)], auxiliary subunits, or the control vector and transfection marker (EFGP-F or mCherry-F). Fluorophore-ligand conjugates were diluted in Hepes-buffered saline (HBS) buffer [20 mM Hepes (pH 7.4), 107 mM NaCl, 6 mM KCl, 1.2 mM MgSO4, 2 mM CaCl2, and 11.5 mM glucose] and added to the cells. Confocal live imaging was performed with LSM900 (Carl Zeiss) equipped with a 63×, numerical aperture (NA) = 1.4 oil-immersion objective. Fluorescence images were acquired by excitation at 405, 488, 561, or 640 nm derived from diode lasers.
For evaluating the concentration dependency of fluorophore-ligand conjugates, 0.1 nM probe in HBS was added to the dish. Then, probes in HBS were added stepwise to the dish to a final concentration of 0.3, 1, 3, 10, 30, 100, 300, 1000, and 3000 nM. Cell surface fluorescence intensity was quantified from the line scans of transfection marker positive cells and calculated with subtraction of background by ZEN blue software (Carl Zeiss). The membrane intensity was fitted with KaleidaGraph (Synergy software) to calculate the equilibrium constant value using the following equation: a + (b − a)/(1 + (x/c)^d). The equilibrium constant is regarded as the Kd in this study.

In the next data set the target is T3, GluA2 (Mus musculus, UniProt P23819, DEL765-802).
T3 construct: expressed in transfected cells; host or cells: HEK293T
T3 sequence (P23819 with tags, fused parts or gaps isoform P23819-4 DEL765-802): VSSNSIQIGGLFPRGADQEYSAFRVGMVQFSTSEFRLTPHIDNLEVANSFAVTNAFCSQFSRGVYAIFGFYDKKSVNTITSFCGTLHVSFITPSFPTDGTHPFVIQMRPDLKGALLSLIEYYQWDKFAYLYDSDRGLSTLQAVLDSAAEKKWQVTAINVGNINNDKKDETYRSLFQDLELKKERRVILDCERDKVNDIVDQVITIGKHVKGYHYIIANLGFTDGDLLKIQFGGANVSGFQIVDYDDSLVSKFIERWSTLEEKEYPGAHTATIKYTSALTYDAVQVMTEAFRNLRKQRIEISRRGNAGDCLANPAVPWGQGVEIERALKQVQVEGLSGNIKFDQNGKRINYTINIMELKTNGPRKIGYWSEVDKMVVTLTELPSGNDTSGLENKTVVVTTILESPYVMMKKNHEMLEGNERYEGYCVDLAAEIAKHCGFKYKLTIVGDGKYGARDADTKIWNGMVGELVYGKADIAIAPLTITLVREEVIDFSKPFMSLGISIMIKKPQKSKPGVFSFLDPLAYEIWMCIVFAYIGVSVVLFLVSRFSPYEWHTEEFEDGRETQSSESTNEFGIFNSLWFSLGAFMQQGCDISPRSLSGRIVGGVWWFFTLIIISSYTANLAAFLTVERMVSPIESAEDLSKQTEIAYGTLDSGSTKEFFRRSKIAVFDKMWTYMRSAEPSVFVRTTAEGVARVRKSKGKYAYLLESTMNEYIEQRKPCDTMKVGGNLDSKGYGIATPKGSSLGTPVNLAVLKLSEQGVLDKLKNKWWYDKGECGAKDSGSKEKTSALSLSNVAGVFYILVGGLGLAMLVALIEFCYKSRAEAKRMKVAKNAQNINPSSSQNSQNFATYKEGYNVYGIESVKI
Nature of the data set: Kinetics and reversibility of PFQX1(AF488) binding in HEK293T cells expressing GluA2. The following applies: 100 nM probe. As for the experimental part:
HEK293T cells were transfected with Halo-tag-GluA2^flip(Q)-3′UTR. The cells were incubated with 500 nM Halo-Tag ligand-Alexa647 [HTL(AF647)] for 15 min at room temperature. AF647 was used as a transfection marker. The cells were washed three times with HBS, and a cloning ring (16 mm φ) was placed on the dish to accelerate the diffusion of the probe solution. After the dish was set on the stage, 100 nM PFQX1(AF488) was added to inside the cloning ring and imaged at specified time points by confocal microscopy.
For evaluating reversibility, 100 nM PFQX1(AF488) in HBS was added to the dish. The cells were observed by confocal microscopy as the first image. Then, the cells were washed three times with HBS and scanned as the wash image. After removal of the buffer, 100 nM PFQX1(AF488) was re-treated, and the cells were scanned as the second image. To quantify the fluorescence intensity of the membrane, the average signal intensity of regions of interest (ROIs) set on the membrane was calculated after subtracting background fluorescence by ZEN blue software.

Molecules are shown by their SMILES.

The solubility is the dissolved amount per volume that the medium holds. High values mean a readily soluble substance, low ones a poorly soluble substance. For `N=c1ccc2c(-c3ccc(C(=O)NCc4ccn(-c5cc6c(cc5C(F)(F)F)[nH]c(=O)c(=O)n6CC(=O)O)c4)cc3C(=O)O)c3ccc(N)c(S(=O)(=O)O)c3oc-2c1S(=O)(=O)O` [PFQX1(AF488)], the results for the “reversibility of binding (medium exchange)” value with AMPARs and on GluA2 were “easily removed by medium exchange” and “fluorescence from the cell surface was lost after the medium exchange”, respectively. The “time to saturation of fluorescent signals after probe addition” value in the data set with AMPARs is recorded as 10 s. The compound further showed a solubility in data set [1] greater than 1470 µM. Moreover, the Kd on GluA2flip(R) + TARP γ7 came to 118 ± 44.7 nM; at GluA3 (Y454A/R461G), 30.6 ± 7 nM. At GluA2, the “time to saturation of cell-surface fluorescence after probe addition” value is no more than 20 s.
